Laboratory results as given in patent US20120129833A1, “CYCLIC KETOENOLS FOR THERAPY” (BAYER PHARMA AKTIENGESELLSCHAFT, priority 2010, published 2012).

Columns and labels:
[1] = biological target: T1, recombinant human ACC1 (acetyl-CoA carboxylase 1) (Homo sapiens, UniProt Q13085); assay: Human ACC1 enzyme assay (HTRF ADP detection); type: biochemical; conditions: 50 μM ATP, 20 μM acetyl-CoA, 15 min pre-incubation, 20 min at 22° C.; read-out: ACC 1 IC50;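 further: ADP by-product quantified by competitive HTRF immunoassay with europium cryptate anti-ADP antibody and d2-labelled ADP, read after 1 h binding at 22 °C, enzyme near 2.5 ng/µl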
T1 construct: NM_198834, amino acids 39—end; FLAG (C); made in house; host or cells: baculovirus-transfected insect cells (Hi5)
Method: The basic principle of the assay is the measurement of adenosine diphosphate (ADP), which is formed as a by-product, by means of an HTRF®-based competitive immunoassay (HTRF=Homogeneous Time Resolved Fluorescence).
The amount of complex of d2-labelled ADP and europium cryptate-labelled anti-ADP antibody was then determined by measuring the resonance energy transfer of europium cryptate to d2.

[2] = biological target: T2, ACC2 (acetyl-CoA carboxylase 2) (Homo sapiens, UniProt O00763); assay: Human ACC2 enzyme assay (HTRF ADP detection); type: biochemical; conditions: 20 μM acetyl-CoA, 15 min pre-incubation, 20 min at 22° C.; read-out: ACC 2 IC50
T2 construct: catalogue no; 50201, amino acids 39—end, expressed in baculovirus-transfected Sf9 insect cells; His (C); purchased BPS Bioscience (San Diego, Calif.) 50201; host or cells: baculovirus-transfected Sf9 insect cells
T2 sequence (O00763 39-2458 limits assumed): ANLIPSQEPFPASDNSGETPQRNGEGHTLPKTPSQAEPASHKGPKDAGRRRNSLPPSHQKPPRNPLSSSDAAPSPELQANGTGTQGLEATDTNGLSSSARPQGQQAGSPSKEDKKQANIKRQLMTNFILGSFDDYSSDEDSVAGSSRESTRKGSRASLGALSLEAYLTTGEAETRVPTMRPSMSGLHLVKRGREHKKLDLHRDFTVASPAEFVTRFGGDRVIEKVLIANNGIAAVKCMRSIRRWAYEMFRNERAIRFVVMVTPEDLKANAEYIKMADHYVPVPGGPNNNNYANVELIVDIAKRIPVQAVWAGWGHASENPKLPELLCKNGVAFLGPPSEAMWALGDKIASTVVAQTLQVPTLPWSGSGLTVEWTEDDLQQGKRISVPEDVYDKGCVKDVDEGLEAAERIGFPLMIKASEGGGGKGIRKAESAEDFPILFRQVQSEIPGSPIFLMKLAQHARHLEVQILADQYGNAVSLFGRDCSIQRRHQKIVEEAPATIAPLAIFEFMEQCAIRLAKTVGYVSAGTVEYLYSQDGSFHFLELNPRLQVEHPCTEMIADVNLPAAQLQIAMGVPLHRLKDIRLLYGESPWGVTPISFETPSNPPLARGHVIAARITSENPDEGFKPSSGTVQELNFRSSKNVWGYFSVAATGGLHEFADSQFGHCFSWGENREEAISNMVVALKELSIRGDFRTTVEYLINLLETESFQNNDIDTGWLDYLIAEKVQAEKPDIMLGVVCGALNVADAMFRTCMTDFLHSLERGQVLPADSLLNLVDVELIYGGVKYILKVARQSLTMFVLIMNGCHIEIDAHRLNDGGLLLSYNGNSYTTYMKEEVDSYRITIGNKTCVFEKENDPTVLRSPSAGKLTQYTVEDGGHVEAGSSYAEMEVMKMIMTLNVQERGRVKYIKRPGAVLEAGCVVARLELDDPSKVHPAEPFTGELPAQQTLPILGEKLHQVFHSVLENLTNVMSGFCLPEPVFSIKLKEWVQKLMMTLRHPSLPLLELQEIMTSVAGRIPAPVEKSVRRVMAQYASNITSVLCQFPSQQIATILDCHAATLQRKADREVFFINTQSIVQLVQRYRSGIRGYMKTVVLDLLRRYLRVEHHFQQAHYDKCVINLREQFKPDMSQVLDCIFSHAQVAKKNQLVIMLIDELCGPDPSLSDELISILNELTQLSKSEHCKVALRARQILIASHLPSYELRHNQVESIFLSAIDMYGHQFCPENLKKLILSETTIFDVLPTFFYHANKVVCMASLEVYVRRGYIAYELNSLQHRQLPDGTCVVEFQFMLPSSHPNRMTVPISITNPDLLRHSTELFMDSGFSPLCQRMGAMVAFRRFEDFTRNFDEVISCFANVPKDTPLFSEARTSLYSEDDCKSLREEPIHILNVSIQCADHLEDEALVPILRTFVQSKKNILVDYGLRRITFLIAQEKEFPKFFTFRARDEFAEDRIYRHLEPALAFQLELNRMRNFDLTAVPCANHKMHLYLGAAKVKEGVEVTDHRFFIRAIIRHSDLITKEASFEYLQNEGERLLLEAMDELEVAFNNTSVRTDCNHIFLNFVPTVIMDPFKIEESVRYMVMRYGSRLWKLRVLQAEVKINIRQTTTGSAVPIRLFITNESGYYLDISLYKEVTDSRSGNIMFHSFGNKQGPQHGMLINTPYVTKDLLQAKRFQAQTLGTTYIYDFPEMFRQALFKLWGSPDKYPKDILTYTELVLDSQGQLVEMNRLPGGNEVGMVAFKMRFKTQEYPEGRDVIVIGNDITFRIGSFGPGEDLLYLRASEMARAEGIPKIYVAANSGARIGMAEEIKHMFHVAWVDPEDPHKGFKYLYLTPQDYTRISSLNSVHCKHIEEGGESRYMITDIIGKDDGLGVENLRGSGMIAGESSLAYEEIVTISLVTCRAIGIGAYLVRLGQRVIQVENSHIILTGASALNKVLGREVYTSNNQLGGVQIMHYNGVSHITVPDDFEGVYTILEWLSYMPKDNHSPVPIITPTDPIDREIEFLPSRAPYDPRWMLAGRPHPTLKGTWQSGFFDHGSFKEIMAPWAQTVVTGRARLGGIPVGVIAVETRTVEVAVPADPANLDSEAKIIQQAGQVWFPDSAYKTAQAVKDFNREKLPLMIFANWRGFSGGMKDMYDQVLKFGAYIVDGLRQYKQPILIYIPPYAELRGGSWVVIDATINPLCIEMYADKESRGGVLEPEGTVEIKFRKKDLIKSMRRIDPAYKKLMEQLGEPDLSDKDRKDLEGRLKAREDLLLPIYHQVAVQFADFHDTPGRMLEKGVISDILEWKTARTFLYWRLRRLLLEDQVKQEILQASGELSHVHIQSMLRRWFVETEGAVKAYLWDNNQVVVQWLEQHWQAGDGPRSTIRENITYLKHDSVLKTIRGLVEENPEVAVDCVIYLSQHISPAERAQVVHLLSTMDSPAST

| SMILES | IC50 [1] | IC50 [2] |
| --- | --- | --- |
| Cc1ccc(-c2ccc(Cl)cc2)cc1C1=C(O)CN(C(C)C)C1=O [Example 1-17, 3-(4′-chloro-4-methylbiphenyl-3-yl)-4-hydroxy-1-(propan-2-yl)-1,5-dihydro-2H-pyrrol-2-one] | 334 nM | 4020 nM |
| Cc1ccc(-c2ccc(Cl)cc2)cc1C1=C(O)CN(C2CC2)C1=O [Example 1-18, 3-(4′-chloro-4-methylbiphenyl-3-yl)-1-cyclopropyl-4-hydroxy-1,5-dihydro-2H-pyrrol-2-one] | 797 nM | 7610 nM |
| Cc1ccc(-c2ccc(Cl)cc2)cc1C1=C(O)C(C)N(C(C)C)C1=O (stereo not drawn) [Example 1-19, 3-(4′-chloro-4-methylbiphenyl-3-yl)-4-hydroxy-5-methyl-1-(propan-2-yl)-1,5-dihydro-2H-pyrrol-2-one] | 874 nM | 6960 nM |
| Cc1ccc(-c2ccc(Cl)cc2)cc1C1=C(O)C2(CCC(C)(C)CC2)NC1=O [Example 1-20, 3-(4′-chloro-4-methylbiphenyl-3-yl)-4-hydroxy-8,8-dimethyl-1-azaspiro[4.5]dec-3-en-2-one] | 240 nM | 214 nM |
| Cc1ccc(-c2ccc(Cl)cc2)cc1C1=C(O)C2CSCCN2C1=O (stereo not drawn) [Example 1-21, 7-(4′-chloro-4-methylbiphenyl-3-yl)-8-hydroxy-1,3,4,8a-tetrahydro-6H-pyrrolo[2,1-c][1,4]thiazin-6-one] | 533 nM | 15100 nM |
| Cc1ccc(-c2ccc(Cl)cc2)cc1C1=C(O)CN(C2CCCCC2)C1=O [Example 1-22, 3-(4′-chloro-4-methylbiphenyl-3-yl)-1-cyclohexyl-4-hydroxy-1,5-dihydro-2H-pyrrol-2-one] | 969 nM | 695 nM |
| Cc1ccc(-c2ccc(Cl)cc2)cc1C1=C(O)C2(CCCCCCC2)NC1=O [Example 1-23, 3-(4′-chloro-4-methylbiphenyl-3-yl)-4-hydroxy-1-azaspiro[4.7]dodec-3-en-2-one] | 584 nM | 485 nM |
| Cc1ccc(-c2ccc(Cl)cc2)cc1C1=C(O)C2(CCC(C(C)C)CC2)NC1=O (stereo not drawn) [Example 1-24, 3-(4′-chloro-4-methylbiphenyl-3-yl)-4-hydroxy-8-(propan-2-yl)-1-azaspiro[4.5]dec-3-en-2-one] | 340 nM | 210 nM |
| Cc1ccc(-c2ccc(Cl)cc2)cc1C1=C(O)C2(Cc3ccccc3C2)NC1=O [Example 1-25, 4′-(4′-chloro-4-methylbiphenyl-3-yl)-3′-hydroxy-1,3-dihydrospiro[indene-2,2′-pyrrol]-5′(1′H)-one] | 495 nM | 3360 nM |
| Cc1ccc(-c2ccc(Cl)cc2)cc1C1=C(O)C2(CCCCCC2)NC1=O [Example 1-26, 3-(4′-chloro-4-methylbiphenyl-3-yl)-4-hydroxy-1-azaspiro[4.6]undec-3-en-2-one] | 540 nM | 1250 nM |
| Cc1ccc(-c2ccc(Cl)cc2)cc1C1=C(O)CN(CC(C)C)C1=O [Example 1-27, 3-(4′-chloro-4-methylbiphenyl-3-yl)-4-hydroxy-1-(2-methylpropyl)-1,5-dihydro-2H-pyrrol-2-one] | 472 nM | > 20000 nM |
| CCOC1CCC2(CC1)NC(=O)C(c1cc(-c3ccc(Cl)cc3)ccc1C)=C2O (stereo not drawn) [Example 1-28, 3-(4′-chloro-4-methylbiphenyl-3-yl)-8-ethoxy-4-hydroxy-1-azaspiro[4.5]dec-3-en-2-one] | 443 nM | 192 nM |
| O=C1N[C@]2(CC[C@@H](OCC(F)(F)F)CC2)C(O)=C1c1cc(-c2ccc(Cl)cc2)ccc1Cl [Example 1-29, (5s,8s)-3-(4,4′-dichlorobiphenyl-3-yl)-4-hydroxy-8-(2,2,2-trifluoroethoxy)-1-azaspiro[4.5]dec-3-en-2-one] | 270 nM | 1900 nM |
| Cc1ccc(-c2ccc(Cl)cc2)c(C)c1C1=C(O)[C@]2(CC[C@H](OCC(F)(F)F)CC2)NC1=O [Example 1-30, (5s,8s)-3-(4′-chloro-2,4-dimethylbiphenyl-3-yl)-4-hydroxy-8-(2,2,2-trifluoroethoxy)-1-azaspiro[4.5]dec-3-en-2-one] | 542 nM | 300 nM |
| Cc1ccc(-c2ccc(F)cc2)c(C)c1C1=C(O)C2(CCC(OCC(F)(F)F)CC2)NC1=O (stereo not drawn) [Example 1-31, 3-(4′-fluoro-2,4-dimethylbiphenyl-3-yl)-4-hydroxy-8-(2,2,2-trifluoroethoxy)-1-azaspiro[4.5]dec-3-en-2-one] | 963 nM | 5960 nM |
| Cc1ccc(-c2ccc(F)cc2)cc1C1=C(O)C2(CCC(OCC(F)(F)F)CC2)NC1=O (stereo not drawn) [Example 1-32, 3-(4′-fluoro-4-methylbiphenyl-3-yl)-4-hydroxy-8-(2,2,2-trifluoroethoxy)-1-azaspiro[4.5]dec-3-en-2-one] | 860 nM | 14000 nM |
| Cc1ccc(-c2ccc(Cl)cc2)cc1C1=C(O)C2(CCC(OCC(F)(F)F)CC2)NC1=O (stereo not drawn) [Example 1-33, 3-(4′-chloro-4-methylbiphenyl-3-yl)-4-hydroxy-8-(2,2,2-trifluoroethoxy)-1-azaspiro[4.5]dec-3-en-2-one] | 359 nM | 535 nM |

| SMILES | IC50 [1] | IC50 [2] |
| --- | --- | --- |
| Cc1ccc(-c2ccc(Cl)cc2)c(C)c1C1=C(O)C2(CCC3(CCCO3)CC2)NC1=O (stereo not drawn) [Example 1-34, 11-(4′-chloro-2,4-dimethylbiphenyl-3-yl)-12-hydroxy-1-oxa-9-azadispiro[4.2.4.2]tetradec-11-en-10-one] | 470 nM | 9400 nM |
| Cc1ccc(-c2ccc(F)c(F)c2)cc1C1=C(O)C2(CCC3(CCCO3)CC2)NC1=O (stereo not drawn) [Example 1-35, 11-(3′,4′-difluoro-4-methylbiphenyl-3-yl)-12-hydroxy-1-oxa-9-azadispiro[4.2.4.2]tetradec-11-en-10-one] | 298 nM | 4000 nM |
| Cc1ccc(-c2cc(F)c(F)c(F)c2)cc1C1=C(O)C2(CCOCC2)NC1=O [Example 1-36, 4-hydroxy-3-(3′,4′,5′-trifluoro-4-methylbiphenyl-3-yl)-8-oxa-1-azaspiro[4.5]dec-3-en-2-one] | 792 nM | > 20000 nM |
| Cc1ccc(-c2ccc(F)c(F)c2)cc1C1=C(O)C2(CCOCC2)NC1=O [Example 1-37, 3-(3′,4′-difluoro-4-methylbiphenyl-3-yl)-4-hydroxy-8-oxa-1-azaspiro[4.5]dec-3-en-2-one] | 810 nM | > 20000 nM |
| O=C1NC2(CCOCC2)C(O)=C1c1cc(-c2cc(F)c(F)c(F)c2)ccc1Cl [Example 1-38, 3-(4-chloro-3′,4′,5′-trifluorobiphenyl-3-yl)-4-hydroxy-8-oxa-1-azaspiro[4.5]dec-3-en-2-one] | 497 nM | > 20000 nM |
| Cc1ccc(-c2ccc(Cl)c(C3=C(O)C4(CCOCC4)NC3=O)c2)cc1F [Example 1-39, 3-(4-chloro-3′-fluoro-4′-methylbiphenyl-3-yl)-4-hydroxy-8-oxa-1-azaspiro[4.5]dec-3-en-2-one] | 663 nM | > 20000 nM |
| Cc1ccc(-c2ccc(F)cc2)c(C)c1C1=C(O)C2(CCCCC2)NC1=O [Example 1-40, 3-(4′-fluoro-2,4-dimethylbiphenyl-3-yl)-4-hydroxy-1-azaspiro[4.5]dec-3-en-2-one] | 1200 nM | 15000 nM |
| O=C1NC2(CCOCC2)C(O)=C1c1cc(-c2ccc(F)cc2)ccc1Cl [Example 1-41, 3-(4-chloro-4′-fluorobiphenyl-3-yl)-4-hydroxy-8-oxa-1-azaspiro[4.5]dec-3-en-2-one] | 751 nM | > 20000 nM |
| CO[C@H]1CC[C@]2(CC1)NC(=O)C(c1c(C)cc(C)c(-c3ccc(F)cc3)c1C)=C2O [Example 1-42, (5s,8s)-3-(4′-fluoro-2,4,6-trimethylbiphenyl-3-yl)-4-hydroxy-8-methoxy-1-azaspiro[4.5]dec-3-en-2-one] | > 20000 nM | 669 nM |
| CO[C@H]1CC[C@]2(CC1)NC(=O)C(c1cc(-c3ccc(F)c(Cl)c3)ccc1C)=C2O [Example 1-43, (5s,8s)-3-(3′-chloro-4′-fluoro-4-methylbiphenyl-3-yl)-4-hydroxy-8-methoxy-1-azaspiro[4.5]dec-3-en-2-one] | 304 nM | 10200 nM |
| CO[C@H]1CC[C@]2(CC1)NC(=O)C(c1cc(-c3ccc(F)cc3)ccc1Cl)=C2O [Example 1-44, (5s,8s)-3-(4-chloro-4′-fluorobiphenyl-3-yl)-4-hydroxy-8-methoxy-1-azaspiro[4.5]dec-3-en-2-one] | 915 nM | > 20000 nM |
| CO[C@H]1CC[C@]2(CC1)NC(=O)C(c1c(C)ccc(-c3ccc(F)cc3)c1C)=C2O [Example 1-45, (5s,8s)-3-(4′-fluoro-2,4-dimethylbiphenyl-3-yl)-4-hydroxy-8-methoxy-1-azaspiro[4.5]dec-3-en-2-one] | 776 nM | 3610 nM |
| COCC1(C)NC(=O)C(c2cc(-c3ccc(Cl)cc3)ccc2C)=C1O (stereo not drawn) [Example 1-46, 3-(4′-chloro-4-methylbiphenyl-3-yl)-4-hydroxy-5-(methoxymethyl)-5-methyl-1,5-dihydro-2H-pyrrol-2-one] | 812 nM | 15800 nM |
| COCCC1(C)NC(=O)C(c2cc(-c3ccc(Cl)cc3)ccc2C)=C1O (stereo not drawn) [Example 1-47, 3-(4′-chloro-4-methylbiphenyl-3-yl)-4-hydroxy-5-(2-methoxyethyl)-5-methyl-1,5-dihydro-2H-pyrrol-2-one] | 923 nM | > 20000 nM |
| COC1CCC2(C1)NC(=O)C(c1c(C)ccc(-c3ccc(Cl)cc3)c1C)=C2O (stereo not drawn) [Example 1-48, 3-(4′-chloro-2,4-dimethylbiphenyl-3-yl)-4-hydroxy-7-methoxy-1-azaspiro[4.4]non-3-en-2-one] | 1010 nM | 8600 nM |
| COCC1CCCC2(C1)NC(=O)C(c1cc(-c3ccc(Cl)cc3)ccc1C)=C2O (stereo not drawn) [Example 1-51, 3-(4′-chloro-4-methylbiphenyl-3-yl)-4-hydroxy-7-(methoxymethyl)-1-azaspiro[4.5]dec-3-en-2-one] | 473 nM | 4910 nM |
